The values below come from publication PMC2829425 (Protein expression and purification, 2010).

Data set [1] deals with T1, zebrafish monoamine oxidase (zMAO) (Danio rerio, UniProt Q6NSN2).
T1 sequence (Q6NSN2 1-522): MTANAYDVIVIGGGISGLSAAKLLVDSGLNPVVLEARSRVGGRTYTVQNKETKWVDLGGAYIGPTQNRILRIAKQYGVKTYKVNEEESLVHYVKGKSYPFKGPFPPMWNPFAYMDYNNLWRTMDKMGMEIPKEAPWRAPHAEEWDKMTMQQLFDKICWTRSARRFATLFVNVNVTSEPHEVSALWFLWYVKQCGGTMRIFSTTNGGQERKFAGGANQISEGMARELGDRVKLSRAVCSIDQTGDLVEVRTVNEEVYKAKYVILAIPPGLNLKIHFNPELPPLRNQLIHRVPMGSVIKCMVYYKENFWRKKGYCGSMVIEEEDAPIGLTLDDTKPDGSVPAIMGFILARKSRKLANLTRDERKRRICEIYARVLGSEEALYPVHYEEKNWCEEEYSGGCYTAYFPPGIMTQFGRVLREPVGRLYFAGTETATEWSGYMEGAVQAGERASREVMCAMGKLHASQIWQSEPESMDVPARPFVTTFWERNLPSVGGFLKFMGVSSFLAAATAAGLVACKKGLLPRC
As to the kind of experiment: specific activity of purified enzyme, 4-hydroxyquinoline formation at […] nm. In kind it is biochemical.

In data set [2] the target is T1, zebrafish monoamine oxidase (zMAO). As to the kind of experiment: steady-state kinetics, benzaldehyde formation at […] nm. In kind it is biochemical. Conditions: read-out: Benzylamine.
Data set [3] has the same target. As to the kind of experiment: irreversible inhibition of purified enzyme. It counts as biochemical.
Substrate in data set [4]: NCCc1ccccc1
As to the kind of experiment: steady-state kinetics, Amplex red/peroxidase-coupled assay. Conditions: covalent FAD ([…]α-S-cysteinylFAD); pH 7.4; 25.0 °C. In kind it is biochemical, Danio rerio.

For the molecule `NCCC(=O)c1ccccc1N` [Kynuramine], the “specific activity of purified enzyme, 4-hydroxyquinoline formation at 316 nm” value in data set [1] was determined as 1.5 U/mg.

As to `NCc1ccccc1` [Benzylamine], the Km in data set [2] stood at 82.2 ± 9 µM.

In the case of `C#CCN(C)C(C)Cc1ccccc1` (stereo not shown) [Deprenyl], the 50% inhibitory concentration (IC50) – broadly, the midpoint of a concentration-inhibition curve – in data set [3] is 6.5 µM. In other words, the single-digit micromolar range.

The molecule `C#CCN(C)CCCOc1ccc(Cl)cc1Cl` [Clorgyline] registered an IC50 in data set [3] of 64 µM.

B1: zebrafish monoamine oxidase (zMAO) (Danio rerio) (protein)
chain: MTANAYDVIVIGGGISGLSAAKLLVDSGLNPVVLEARSRVGGRTYTVQNKETKWVDLGGAYIGPTQNRILRIAKQYGVKTYKVNEEESLVHYVKGKSYPFKGPFPPMWNPFAYMDYNNLWRTMDKMGMEIPKEAPWRAPHAEEWDKMTMQQLFDKICWTRSARRFATLFVNVNVTSEPHEVSALWFLWYVKQCGGTMRIFSTTNGGQERKFAGGANQISEGMARELGDRVKLSRAVCSIDQTGDLVEVRTVNEEVYKAKYVILAIPPGLNLKIHFNPELPPLRNQLIHRVPMGSVIKCMVYYKENFWRKKGYCGSMVIEEEDAPIGLTLDDTKPDGSVPAIMGFILARKSRKLANLTRDERKRRICEIYARVLGSEEALYPVHYEEKNWCEEEYSGGCYTAYFPPGIMTQFGRVLREPVGRLYFAGTETATEWSGYMEGAVQAGERASREVMCAMGKLHASQIWQSEPESMDVPARPFVTTFWERNLPSVGGFLKFMGVSSFLAAATAAGLVACKKGLLPRC
For B1, in data set [4], the Km worked out at 86 ± 13 µM; the kcat (usually the maximal rate divided by the concentration of active sites) was determined as 3.4 ± 0.145 s⁻¹; the kcat/Km – broadly, the turnover number divided by the Michaelis constant – was 39500 ± 3170 M⁻¹ s⁻¹.
